Here are results for 1 molecule from paper PMC6268492, “Synthesis and Antiangiogenic Activity of Novel Gambogic Acid Derivatives” (Molecules, 2012).

Data set [1] deals with transgenic fli-1: enhanced GFP zebrafish embryos. Nature of the data set: Zebrafish embryo assay: antiangiogenic effects. In kind it is in vivo, zebrafish (Danio rerio). Conditions: Danio rerio, zebrafish embryos.
Data set [2] relates to zebrafish embryos. Description: Zebrafish toxicity: heart rates. The following applies: for Heart rates of zebrafish: control 117 beats/min. Format: in vivo. As for the experimental part:
(§1) To investigate the toxicity of these four compounds, the heart rates and the mortality rates of zebrafish embryos were recorded (Table 2 and Table 3). The heart rate of zebrafish in the control group was 117 beats/min.
(§2) Using transgenic fli-1: enhanced GFP zebrafish embryos, we investigated the effects of all compounds on angiogenesis. Zebrafish embryos were generated by natural pairwise mating and raised at 28.5 °C in embryo water (0.2 g/L of Instant Ocean Salt in distilled water). At about 6 h post fertilization (hpf), the embryos were sorted in the 6-well plate (six embryos/well), removing dead and unhealthy embryos. Then the embryos were treated with the indicated concentrations of compounds which were added into embryo water. After incubation for 24 or 48 h, the embryos were anesthetized using 0.05% 2-phenoxyethanol in embryo water, quantified and photographed.

The test system of data set [3] is zebrafish embryos. Nature of the data set: Zebrafish toxicity: mortality rate. In kind it is in vivo, zebrafish (Danio rerio). The method, then: as §1, §2
Data set [4] deals with HUVECs. Nature of the data set: Wound-healing migration assay. Format: cell-based, Human. The following applies: 1 μM, 24 h, control = 100%. From the text:
The migration of ECs is an important step of angiogenesis. The continuity of vascular ECs is the most important factor in preserving vessel wall function. Migration of ECs is essential to the recovery of this continuity after vascular ECs injury. […] As illustrated in Figure 3(I), the HUVECs migrated into the wound area actively (between the two white dash lines) under the compound-free condition (control).
Figure 3 Effects on the HUVECs migration. (I) HUVECs suspended in serum-free Dulbecco’s Modified Eagle Medium (DMEM) containing compounds (0.25 or 0.5 or 1 μM) for 24 h were photographed under a phase contrast microscopy (Olympus CKX41, magnification: 50×). Control was treated with serum-free DMEM which was consided as resulting in 100%; (II) Migration rates of compounds on the HUVECs. Data represented the mean standard deviation (SD) from three independent experiments. *** p < 0.005compared with control.
HUVECs were seeded in 6-well plates precoated with 0.1% gelatin, and grown overnight to confluence. The monolayer cells were wounded by scratching with 10 μL pipet tips and washed twice with serum-free DMEM (Dulbecco’s modified eagle medium) to remove the nonadherent cells and then replaced by serum-free DMEM with the indicated concentrations of compounds for 24 h. Images were taken at 0 h and 24 h independently after incubation at 37 °C, 5% CO2 environment. The migrated HUVECs were manually counted. The values were observed from four randomly selected fields.

In data set [5] the test system is A549. Description: MTT assay, cell proliferation. In kind it is cell-based. The following applies: Homo sapiens, 24 h, read-out: IC50, inhibition of cell proliferation. Put shortly:
(§3)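 Absorbance at 570 nm of DMSO-dissolved formazan was expressed as percentage growth relative to untreated cells, and IC50 was taken as the concentration giving 50% inhibition. Seeding was 5 × 10^3 cells per well, with 24 h compound treatment followed by 3 h MTT.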

The subject of data set [6] is HCT116. Nature of the data set: MTT assay, cell proliferation. Format: cell-based. The following applies: Homo sapiens, HCT-116, 24 h, read-out: IC50, inhibition of cell proliferation. A digest of the protocol:
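Cells are seeded at 5 × 10^3 per well and treated with a concentration series for 24 h. MTT is then added for 3 h, the precipitate is solubilised in DMSO and read at 570 nm. K562 grows in RPMI 1640, the other lines in DMEM, all with 10% FBS.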
A general note: Formazan colour is commonly taken as a measure of viable cells.

Data set [7] concerns HeLa. Description: MTT assay, cell proliferation. Format: cell-based. Conditions: Homo sapiens, 24 h, read-out: IC50, inhibition of cell proliferation. Put shortly: (§4)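 5 × 10^3 cells/well; compound 24 h, 37 °C, 5% CO2; MTT 3 h; formazan in DMSO; A570. Media: DMEM + 10% FBS (HepG2, HeLa, LO2), RPMI 1640 + 10% FBS (K562). IC50 = 50% growth inhibition vs untreated.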
Data set [8] relates to HepG2. Description: MTT assay, cell proliferation. Format: cell-based. The following applies: Homo sapiens, 24 h, read-out: IC50, inhibition of cell proliferation. A digest of the protocol:
as §4

Data set [9] concerns K562. Nature of the data set: MTT assay, cell proliferation. Format: cell-based. Conditions: Homo sapiens, 24 h, read-out: IC50, inhibition of cell proliferation. Put shortly: as §4
The subject of data set [10] is HUVEC. Description: MTT assay, cell proliferation. Format: cell-based, Human. The following applies: Homo sapiens, 24 h, read-out: IC50, inhibition of cell proliferation. A digest of the protocol: as §3
Data set [11] deals with LO2. Description: MTT assay, cytotoxicity. In kind it is cell-based. The following applies: Homo sapiens, L02, 24 h, read-out: IC50, inhibition of cell proliferation. A digest of the protocol:
as §4

Where two headings read alike, the source gives them in different places.

For `CC(=O)Nc1ccc(NC(=O)/C(C)=C\CC23OC(C)(C)C4CC(C=C5C(=O)c6c(O)c7c(c(CC8OC8(C)C)c6OC542)OC(C)(CCC2OC2(C)C)C=C7)C3=O)cc1` (stereo not shown) [Compound 36, (32,33),(37,38)-Diepoxy-N-(4-acetamidophenyl) gambogamide], the inhibition in vivo at 1 µM is 25 to 50% in [1] (read-out: antiangiogenic rates) and 25 to 50% in data set [1] (vs vehicle (0.05% DMSO), read-out: Anti-angiogenic phenotype). In addition, in data set [1] (2.5 μM, vs vehicle (0.05% DMSO), read-out: Anti-angiogenic phenotype), the inhibition in vivo at 2.5 µM fell in the range of 50 to 75%. In data set [1] (10 μM, vs vehicle (0.05% DMSO), read-out: Anti-angiogenic phenotype), the inhibition in vivo at 10 µM is greater than 75%. In addition, the “heart rates relative to control group” value in [2] (2.5 µM and 10 µM, zebrafish) is “about half of the control group”. Moreover, the results for the “Heart rates of zebrafish” value in data set [2] (2.5 μM) and in [2] (10 μM) were 60 ± 5.2 beats/min and 60 ± 2.86 beats/min, respectively. Also, the Mortality rates in data set [3] (1 μM, zebrafish) is on record as 0%; in [3] (2.5 µM and 10 µM, zebrafish embryos), “less than 20%”; in data set [3] (2.5 μM, zebrafish), 3.3 ± 5.77 %; in [3] (10 μM, zebrafish), 16.7 ± 5.77 %. Also, the migratory rates in data set [4] stood at 1.7%. Further, the IC50 in data set [5] came to 1290 ± 140 nM; in data set [6], 560 ± 10 nM; in data set [7] it was 4960 ± 880 nM; in [8], 1850 ± 80 nM; in data set [9] it was 280 ± 30 nM; in data set [10], 2450 ± 90 nM. Besides, the IC50 in data set [11] was 1620 ± 80 nM.
